Experiments:
Format in all cases: cell-based
[1] = test system: IPCs derived from human MSCs; test: Insulin release by IPCs quantified by human insulin ELISA; details: IBMX 100 μM, low glucose concentration (5 mM), 1 hour incubation in KRB buffer, FIG. 3B, p<0.05
Description: Insulin is an endocrine for reducing blood sugar, and normal islet cells are induced by glucose to release insulin. In order to quantify insulin release by IPCs, a human insulin ELISA (Enzyme-Link ImmunoSorbent Assay) is employed herein.
The suspension stage IV cells are rinsed twice in Phosphate Buffered Saline (PBS) and Krebs-Ringer bicarbonate (KRB) buffer (120 mM NaCl, 5 m M KCl, 2.5 m M CaCl2, 1.1 mM MgCl2, 25 mM NaHCO3 , 0.1 BSA) and preincubated for 1 hour with KRB buffer containing 5 mM glucose. The suspension stage IV cells are then incubated for 1 hour in fresh KRB buffer with 5 mM, 10 mM, 15 mM or 25 mM glucose, and the released insulin in the incubation medium is quantified by ELISA. The quantified insulin release results are shown in FIG. 3A, wherein undifferentiated MSCs are served as a control (*p<0.05 as compared with 5 mM; #p<0.05 as compared with 10 mM; student's t test). […] The insulin secreted by IPCs derived from human MSCs in the present invention is up to 1.1 ng/h/2.5×10^5 IPCs, which is even higher than those secreted by IPCs derived from rodent bone marrow stem cells in the prior art (referring to the citations 5-7). […]

human MSCs [2] = test: Relative mRNA expression of insulin and Glut2 by RT-PCR and agarose electrophoresis, normalized by β-actin (FIG. 1); details: end of four-stage culture
Text: Islet cells are aggregated cells, and the extracellular matrix (ECM) thereof includes fibronectin and laminin. The present invention provides a method for promoting MSCs to differentiate into IPCs by cell pellet suspension culture with additional fibronectin or laminin. The cells of the embodiments and the control groups at the end of the four-stage culture are harvested, and the relative mRNA expression levels of insulin and glucose transporter 2 (Glut2) thereof are detected by reverse-transcription polymerase chain reaction (RT-PCR) and agarose electrophoresis, and are normalized by the expression level of β-actin. In addition, it should be noted that all of the bar graphs shown in FIGS. 1-4 are represented by the measured mean with its standard deviation.

human MSCs [3] = test: Dithizone (DTZ) staining for islet differentiation; details: pellet suspension culture with versus without fibronectin, DTZ staining (not shown)
Text: Islet differentiation is further evaluated by dithizone (DTZ) staining to detect zinc ion, which binds six insulin molecules within the cells. Cells in the control groups I and II are not stained by DTZ; cells in the embodiment II are slightly stained by DTZ, and cells in the embodiment I are greatly stained by DTZ (not shown).

human MSCs [4] = test: Insulin and Glut2 gene expression in stage IV cells by real-time RT-PCR, normalized by GAPDH (FIGS. 4A, 4B); details: pellet suspension culture; for gene expressions of insulin and Glut2: 5 μg/mL ECM, compared with pellet culture without any ECM
Description: In order to further compare the different differentiation effects resulting from different ECMs when stem cells differentiate into IPCs in pellet suspension culture, the present invention performs the tests by adding fibronectin and laminin in combination or separately.
The gene expressions of insulin and Glut2 in stage IV cells of the present embodiments I-IV are analyzed by real-time RT-PCR respectively, and the detected results are further normalized by the expression level of glyceraldehyde-3-phosphate dehydrogenase (GAPDH) to measure the mRNA expression levels.

[5] = monolayer culture with 5 μg/mL fibronectin (control group I)
[6] = pellet suspension culture with 5 μg/mL fibronectin (embodiment I)

| Compound | insulin release [1] | Glut2 expression (human MSCs [2]; [5]) | gene expression of insulin (human MSCs [2]; [5]) | Glut2 expression (human MSCs [2]; [6]) | gene expression of insulin (human MSCs [2]; [6]) | differentiation of MSCs into IPCs (human MSCs [3]) | gene expressions of insulin and Glut2 (human MSCs [4]) | gene expression level compared with fibronectin plus laminin (human MSCs [4]) | insulin and Glut2 expressions compared with fibronectin only (human MSCs [4]; compared with embodiment I (fibronectin only)) |
| --- | --- | --- | --- | --- | --- | --- | --- | --- | --- |
| CC(C)Cn1c(=O)n(C)c(=O)c2[nH]cnc21 [IBMX, 3-isobutyl-1-methylxanthine] | stimulates insulin release |  |  |  |  |  |  |  |  |
| fibronectin |  | moderately detected | not detected | markedly detected | obviously detected | can further enhance the differentiation of MSCs into IPCs | increased gene expressions of insulin and Glut2 |  |  |
| laminin |  |  |  |  |  |  | increased gene expressions of insulin and Glut2 | significantly higher than that of the embodiment IV | higher than the embodiment I |

— US20090311782A1, “METHOD FOR PROMOTING DIFFERENTIATION OF STEM CELL INTO INSULIN PRODUCING CELL” (TAIPEI VETERANS GENERAL HOSPITAL, priority 2008, published 2009)
